Measurements published in paper PMC6814295 (Insect biochemistry and molecular biology, 2018).

Experiments:
[1] = target: AaPK1 (Aedes aegypti pyruvate kinase 1) (Aedes aegypti, UniProt Q16F38); test: LDH-coupled NADH oxidation at […] nm, PEP varied; format: biochemical; conditions: 1 mM effector, 2 mM ADP, 20 mM MgCl2, 50 mM KCl, pH 7.5, 25 °C
[2] = target: Aedes aegypti pyruvate kinase 1 (Aedes aegypti); test: crystal structure

Compound	LDH-coupled NADH oxidation at 340 nm, PEP varied ([1]; allosteric activator)	also measured
NC(=O)CC[C@H](N)C(=O)O [glutamine]	AaPK1 is regulated by alanine, glutamine, proline, and serine in a classic allosteric fashion	
O=C(O)[C@@H]1CCCN1 [proline]	AaPK1 is regulated by alanine, glutamine, proline, and serine in a classic allosteric fashion	
O=C(CO)[C@H](O)[C@H](O)COP(=O)(O)O [R5P, ribulose-5-phosphate]		LDH-coupled NADH oxidation at 340 nm, PEP varied ([1]; allosteric inhibitor): while R5P is an allosteric inhibitor of AaPK1
Aedes aegypti pyruvate kinase 1 (enzyme)		stoichiometry N [2]: 4
N[C@@H](CO)C(=O)O [serine]	AaPK1 is regulated by alanine, glutamine, proline, and serine in a classic allosteric fashion	
C[C@H](N)C(=O)O [alanine]	AaPK1 is regulated by alanine, glutamine, proline, and serine in a classic allosteric fashion	
O=P(O)(O)OCC1(O)O[C@H](CO)[C@@H](O)[C@@H]1O (stereo partly shown) [F1P, fructose-1-phosphate]	our results indicate that F1P is an allosteric activator	
